According to US11884638B2, “Compound or salt thereof, composition for cysteine detection, fluorescent probe and composition for diagnosing cancer containing the same, method for detecting cysteine, method for providing information for diagnosing cancer, and method for producing compound” (Industry-Academic Cooperation Group of Kyung Hee University, priority 2021, dated 2024):

Experiments:
[1] = Fluorescence emission of Compound 1 with cysteine added to non-pretreated urine; design: species or system human
Method: In order to confirm the reaction of Compound 1 with cysteine in urine, non-pretreated urine (198 μL) was treated with varying concentrations (1 to 120 ng/μL) of cysteine, and then treated with Compound 1 (100 μM). The resulting urines were stirred in a stirrer at 37° C. for 40 minutes, and the fluorescence spectra were measured (excitation wavelength: 488 nm). In addition, Compound 1 was used after dissolution in a DMSO solution at 10 mM, and the amount of DMSO in the final solvent condition was controlled to be the same for each container (less than 1%).
Specifically, a spectro-fluorophotometer (SHIMADZU Corp. RF-6000, Japan) was used to analyze the emission spectrum, and the glass cuvette used for fluorescence measurement was a standard quartz cell (internal volume=[…], Hellma Analytics, Jena, Germany) having a thickness of 1 cm on all sides. In addition, a chamber (WUV-L10, DAIHAN Scientific) capable of excitation at a wavelength of 365 nm was used to visually observe the fluorescence change.
When the urine was treated with compound 1 (100 μM) and cysteine (60 ng/μL or higher), fluorescence changes were visible without a separate fluorescence measurement device. Although fluorescence changes were not visible when the urine was treated with Compound 1 (100 μM) and cysteine (concentration of 10 ng/μL or lower), examination was made as to whether fluorescence changes in this treatment could be confirmed using a fluorescence measurement device (FIG. 1(b)). Referring to FIG. 1(b), significant fluorescence changes could be obtained in the presence of 1 ng/μL of cysteine in urine, and statistical data thereon are shown below.

[2] = Fluorescence spectral analysis of Compound 1 in urines from patients with other diseases including cancer; design: species or system human; details: Compound 1 100 μM, 37° C. 40 minutes
From the text: The urines used in the experiment were collected from urolithiasis patients (B, N=162), kidney cancer patients (C, N=162), prostate cancer patients (D, N=162), bladder cancer patients (E, N=162), cervical cancer patients (F, N=100), diabetic patients (G, N=100), pituitary cancer patients (H, N=100), adrenal cancer patients (I, N=100), lung cancer patients (J, N=100), ovarian cancer patients (K, N=100), pancreatic and biliary tract cancer patients (L, N=100), and pancreatic cancer patients (M, N=100). In the measurement method, each of the collected urine (198 μL) and Compound 1 (100 μM) were mixed together, the fluorescence spectra thereof were measured, and the highest fluorescence intensity value was taken. Then, each mixture was stirred at 37° C. for 40 minutes, and the highest fluorescence intensity value obtained from the fluorescence spectra was taken. The difference between the fluorescence intensity values before and after the reaction was shown as a bar graph.

[3] = Fluorescence spectral analysis of Compound 1 in urine derived from cervical cancer patients; design: species or system human; details: Compound 1 100 μM, urines N=100 versus normal N=308, 37° C. 40 minutes
Method: Specifically, fluorescence spectral analysis was performed immediately after treatment of the urines with Compound 1 (black line). After stirring at 37° C. for 40 minutes, fluorescence spectral analysis was performed (red line). […]

[4] = Binding selectivity of Compound 1 to cysteine in urine by fluorescence change; details: 37° C. 40 minutes, excitation 488 nm; for selectivity of fluorescence change among biomolecules detectable in urine: each biomolecule 100 μM (cysteine, glutathione, aspartic acid, glutamine, lysine, arginine, adenosine triphosphate, sucrose, ammonium), FIG. 2(b)
Method: Specifically, in order to determine whether Compound 1 selectively binds to cysteine in urine, cysteine and N-ethylmaleimide (NEM) (500 μM) capable of lowering cysteine concentration in urine were used. In addition, glutathione, aspartic acid, glutamine, lysine, arginine, adenosine triphosphate, sucrose, and ammonium used in the experiment were products obtained from TCI (Tokyo Chemical Industry Co., Ltd), Sigma Aldrich, and Alfa Company. The concentration of each biomolecule was equally measured at 100 μM. In addition, in order to obtain fluorescence spectra and values, Compound 1 and an unknown sample were stirred at 37° C. for 40 minutes and then excited at a wavelength of 488 nm.
The types of biomolecules indicated on the x-axis of FIG. 2(b) are as follows, and the following Probe 1 corresponds to Compound 1: • (A) Probe 1; • (B) Probe 1 with L-cysteine; • (C) Probe 1 with L-glutathione; • (D) Probe 1 with L-aspartic acid; • (E) Probe 1 with L-glutamine; • (F) Probe 1 with L-lysine; • (G) Probe 1 with L-arginine; • (H) Probe 1 with adenosine triphosphate; • (I) Probe 1 with sucrose; • (J) Probe 1 with ammonium.

SMILES: O=[N+]([O-])c1ccc(Oc2c(F)c(F)c(F)c(F)c2F)c2nonc12 [Compound 1, 4-nitro-7-(Perfluorophenoxy)benzo[c][1,2,5]oxadiazole]
- cysteine concentration at which fluorescence changes were visible without a separate fluorescence measurement device ([1]; normal urine, Compound 1 100 μM, 37° C. 40 minutes, excitation at 365 nm): ≥ 60 ng/µL
- cysteine concentration at which fluorescence changes were not visible ([1]; normal urine, Compound 1 100 μM, 37° C. 40 minutes, excitation at 365 nm, by eye): ≤ 10 ng/µL
- cysteine concentration in urine giving significant fluorescence changes using a fluorescence measurement device ([1]; urine, Compound 1 100 μM, 37° C. 40 minutes, excitation 488 nm): 1 ng/µL
- wavelength of fluorescence turn-on upon binding to cysteine ([1]; when bound to cysteine): ~550 nm
- patient group with the largest fluorescence emission effect ([2]; cervical cancer patients (F) compared with the other patient groups): greatest in the case of cervical cancer patients
- fluorescence emission (difference of highest fluorescence intensity before and after reaction) in patient urines ([2]; urines of urolithiasis (B), cervical cancer (F), adrenal cancer (I), ovarian cancer (K), pancreatic and biliary tract cancer (L) patients): noticeable fluorescence emission was observed
- fluorescence values after reaction in urines derived from cervical cancer patients [3]: high fluorescence values
- fluorescence value in urine containing cysteine ([4]; FIG. 2(a)): high fluorescence value
- fluorescence value on co-treatment with N-ethylmaleimide which reduces cysteine ([4]; N-ethylmaleimide 500 μM, urine, FIG. 2(a)): fluorescence value decreased
- selectivity of fluorescence change among biomolecules detectable in urine [4]: significant fluorescence change could be observed only for cysteine
- selectivity of fluorescence change among biomolecules detectable in urine ([4]; listed as 4-nitro-7-(perfluorophenoxy)benzo[c][1,2,5]oxadiazole): selectively detect cysteine in urine without interference of other biomolecules
